Read-outs that look alike come from different tables or passages of the source.
Assays:
KRAS G12V/RAF1 = molecular target: T1, KRAS G12V/RAF1 (Homo sapiens, UniProt P01116, G12V); test: Protein-protein interaction (PPI) HTRF assay KRAS G12V/RAF1; format: binding; settings: Table 3; KRASG12V/RAF1
T1 construct: His6-MBP (N, cleaved yes); made in house; host or cells: E. coli
Procedure: Biotinylated KRAS wt and KRAS G12DNV proteins were expressed and purified in conditions similar to those previously reported (Tran, et al., 2021) (Zhang, et al., 2020). Briefly, KRAS (1-169) proteins were expressed in E. coli at 18° C. with an upstream TEV cleavage site (ENLFYQS (SEQ ID NO: 6)) followed an Avi tag sequence ([…] (SEQ ID NO: 7)). KRAS expression constructs contained both a His6 (SEQ ID NO: 8) and maltose-binding protein (MBP) tags at the N-terminus for Ni-NTA column purification prior to overnight TEV cleavage and MBP column purification. The avi-tagged NRAS expression construct contained both a His6 tag (SEQ ID NO: 8) and SUMO cleavage sige at the N-terminus for Ni-NTA column purification followed by His-ULPi digestion overnight. […]
When RAS proteins are in the active GTP-bound conformation, they bind the effector protein RAF1 at the N-terminus Ras-binding domain (RBD, residues 52-131) (Tran, et al., 2021). Homogenous time resolved fluorescence (HTRF) was used to monitor the interaction between wt or mutant KRAS and RAF1 or wt NRAS and RAFT. […] The intensity of the fluorescence signal emitted is proportional to binding between the two proteins. […] The fluorescence signal emitted was monitored at 665 nm and 615 nm using an Envision multimode plate reader. […]

[1] = test system: AGS cells (KRAS G12D), phospho-ERK; test: pERK In Cell Western (ICW) assay (Method B), AGS cells; format: cell-based; settings: Homo sapiens
Procedure, shortened: (§1)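 GP2D (10,000 cells/well) and AGS (5,000 cells/well) cells were treated for 3 h at 37 °C with a 10-point, ½-log dilution series (top […]). They were then fixed and immunostained for phospho-ERK. pERK signal was normalised to DRAQ5 and expressed as % of DMSO, with IC50 from a 4-parameter fit.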

[2] = test system: GP2D cells (KRAS G12D), phospho-ERK; test: pERK In Cell Western (ICW) assay, GP2D cells; format: cell-based; settings: Table 4, 3 hours
Procedure, shortened: as §1

[3] = Table 4, pERK, 3 hours, read-out: ICW-AGS

T1 sequence (P01116 with tags, fused parts or gaps isoform P01116-2 G12V): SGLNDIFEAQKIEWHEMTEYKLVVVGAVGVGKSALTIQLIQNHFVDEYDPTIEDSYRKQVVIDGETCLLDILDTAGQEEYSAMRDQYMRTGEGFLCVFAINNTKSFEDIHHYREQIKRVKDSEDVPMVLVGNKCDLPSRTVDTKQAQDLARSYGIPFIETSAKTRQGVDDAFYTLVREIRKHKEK

SMILES	IC50 (KRAS G12V/RAF1)	IC50 ([1]; Table 2, 3 hours, ICW, read-out: pERK-AGS (uM) Method B)	IC50 [1, 3]	IC50 [2]
CN(C)C(=O)c1nn2c(c1Cl)CN(c1nc(OC[C@@]34CCCN3C[C@H](F)C4)nc(N3CC4(CCc5sc(N)c(C#N)c54)C3)c1C#N)CCC2 [Compound 2, 5-[6-(2-amino-3-cyano-spiro[5,6-dihydrocyclopenta[b]thiophene-4,3′-azetidine]-1′-yl)-5-cyano-2-[[(2R,8S)-2-fluoro-1,2,3,5,6,7-hexahydropyrrolizin-8-yl]methoxy]pyrimidin-4-yl]-3-chloro-N,N-dimethyl-4,6,7,8-tetrahydropyrazolo[1,5-a][1,4]diazepine-2-carboxamide]	1000 to 10000 nM	0.01 to 0.1 µM	0.01 to 0.1 µM	1 to 10 nM
CN(C)C(=O)c1nn2c(c1Cl)CN(c1nc(OC[C@@]34CCCN3C[C@H](F)C4)nc(N3CC4(CCCc5sc(N)c(C#N)c54)C3)c1C#N)CCC2 [Compound 3, 5-[6-(2-amino-3-cyano-spiro[6,7-dihydro-5H-benzothiophene-4,3′-azetidine]-1′-yl)-5-cyano-2-[[(2R,8S)-2-fluoro-1,2,3,5,6,7-hexahydropyrrolizin-8-yl]methoxy]pyrimidin-4-yl]-3-chloro-N,N-dimethyl-4,6,7,8-tetrahydropyrazolo[1,5-a][1,4]diazepine-2-carboxamide]	10000 to 100000 nM		0.01 to 0.1 µM	1 to 10 nM
CN(C)C(=O)c1nn2c(c1Cl)CN(c1nc(OC[C@@]34CCCN3C[C@H](F)C4)nc(N3CC4(CCc5sc(N)c(C#N)c54)C3)c1F)CCC2 [Compound 9, 5-[6-(2-amino-3-cyano-spiro[5,6-dihydrocyclopenta[b]thiophene-4,3′-azetidine]-1′-yl)-5-fluoro-2-[[(2R,8S)-2-fluoro-1,2,3,5,6,7-hexahydropyrrolizin-8-yl]methoxy]pyrimidin-4-yl]-3-chloro-N,N-dimethyl-4,6,7,8-tetrahydropyrazolo[1,5-a][1,4]diazepine-2-carboxamide]			0.1 to 1 µM	10 to 100 nM
N#Cc1c(N2CCCC3(C2)NC(=O)NC3=O)nc(OC[C@@]23CCCN2C[C@H](F)C3)nc1N1CC2(CCc3sc(N)c(C#N)c32)C1 (stereo partly drawn) [Compound 12, 2-amino-1′-[5-cyano-6-(2,4-dioxo-1,3,9-triazaspiro[4.5]decan-9-yl)-2-[[(2R,8S)-2-fluoro-1,2,3,5,6,7-hexahydropyrrolizin-8-yl]methoxy]pyrimidin-4-yl]spiro[5,6-dihydrocyclopenta[b]thiophene-4,3′-azetidine]-3-carbonitrile]			1 to 10 µM	1000 to 10000 nM
Cc1noc(-c2cc3n(n2)CCCN(c2nc(OC[C@@]45CCCN4C[C@H](F)C5)nc(N4CC5(CCc6sc(N)c(C#N)c65)C4)c2C#N)C3)n1 [Compound 16, 2-amino-1′-[5-cyano-6-[2-(3-methyl-1,2,4-oxadiazol-5-yl)-4,6,7,8-tetrahydropyrazolo[1,5-a][1,4]diazepin-5-yl]-2-[[(2R,8S)-2-fluoro-1,2,3,5,6,7-hexahydropyrrolizin-8-yl]methoxy]pyrimidin-4-yl]spiro[5,6-dihydrocyclopenta[b]thiophene-4,3′-azetidine]-3-carbonitrile]			0.1 to 1 µM	100 to 1000 nM
CN(C)C(=O)c1nn2c(c1Cl)CN(c1nc(OC[C@@]34CCCN3C[C@H](F)C4)nc(N3CC4(CCc5sc(N)c(C#N)c54)C3)c1C#N)CC(F)(F)C2 [Compound 91, 5-[6-(2-amino-3-cyano-spiro[5,6-dihydrocyclopenta[b]thiophene-4,3′-azetidine]-1′-yl)-5-cyano-2-[[(2R,8S)-2-fluoro-1,2,3,5,6,7-hexahydropyrrolizin-8-yl]methoxy]pyrimidin-4-yl]-3-chloro-7,7-difluoro-N,N-dimethyl-6,8-dihydro-4H-pyrazolo[1,5-a][1,4]diazepine-2-carboxamide]			0.01 to 0.1 µM	10 to 100 nM
